These results are taken from US8304447B2, “2-acylaminopropoanol-type glucosylceramide synthase inhibitors” (Genzyme Corporation, priority 2007, dated 2012).

The structures appear in SMILES notation. Read-outs that look alike come from different tables or passages of the source.

In the test the test system is GM3. Nature of the test: GM3 Elisa assay. It is filed as cell-based. To be noted: B16-FO cells, read-out: IC50_uM_Mean. The method, boiled down:
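Cellular GM3 ELISA: fixed cells probed with monoclonal anti-GM3 (NeuAc), HRP-conjugated anti-IgM and fluorogenic Quantablu substrate, read at Ex 325/Em 420. Cells were B16-FO, treated 2 days after a 6 h attachment on collagen-coated wells.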

Setting [1] is: 48 h, Table 2, 2 days incubation.
Setting [2] is: 48 h, Table 1, 2 days incubation.

Take `CCCCCCCC(=O)N[C@H](CN1C2CCC1CC2)[C@H](O)c1ccc2c(c1)OCCO2` [Compound 524]: the IC50 (Table 3 (IC 50 Values)) lay within 0.1 to 1 µM.
For `COc1ccc(OCCC(=O)N[C@H](CN2CCC(C)(C)C2)[C@H](O)c2ccc3c(c2)OCCO3)cc1` [Compound 519], where the note is “Table 3 (IC 50 Values)”, the IC50 was in the range of 3 to 10 µM.
Turning to `COc1ccc(OCCC(=O)N[C@H](CN2CC[C@H](O)C2)[C@H](O)c2ccc(OC(C)C)cc2)cc1` [Compound 447], the IC50 (Table 3 (IC 50 Values)) is at most 0.1 µM.
Regarding `O=C(NCc1ccc(Cl)cc1)N[C@H](CN1CCCC1CN1CCCC1)[C@H](O)c1ccc2c(c1)OCCO2` (stereo partly drawn) [Compound 244], the IC50 under setting [1] is at most 0.1 µM.
On to `COc1ccc(CNC(=O)N[C@H](CN2CCCC2)[C@H](O)c2ccc3c(c2)OCCO3)cc1` [Compound 41, 1-((1R,2R)-1-(2,3-dihydrobenzo[β][1,4]dioxin-6-yl)-1-hydroxy-3-(pyrrolidin-1-yl)propan-2-yl)-3-(4-methoxybenzyl)urea], for which the IC50 under setting [2] was at most 0.1 µM.
The same measure, in the same setting: with `O=C(CCOc1ccccc1)N[C@H](CN1CCCC1)[C@H](O)c1ccc2c(c1)OCCO2` [Compound 27, N-((1R,2R)-1-(2,3-dihydrobenzo[β][1,4]dioxin-6-yl)-1-hydroxy-3-(pyrrolidin-1-yl)propan-2-yl)-3-phenoxypropanamide] the figure was at most 0.1 µM.
Same read-out and setting: with `Cc1cccc(CC(=O)N[C@H](CN2CCCC2)[C@H](O)c2ccc3c(c2)OCCO3)c1` [Compound 36, N-((1R,2R)-1-(2,3-dihydrobenzo[b][1,4]dioxin-6-yl)-1-hydroxy-3-(pyrrolidin-1-yl)propan-2-yl)-2-m-tolylacetamide] the figure was 0.1 to 1 µM.
On to `COc1ccc(C(=O)CCCCC(=O)N[C@H](CN2CCCC2)[C@H](O)c2ccc(OCCCC(F)(F)F)cc2)cc1` [Compound 432], for which, for the setting “Table 3 (IC 50 Values)”, the IC50 is at most 0.1 µM.
For the compound `COc1ccc(C(=O)CCC(=O)N[C@H](CN2CCCC2)[C@H](O)c2ccc3c(c2)OCCO3)cc1` [Compound 154, N-((1R,2R)-1-(2,3-dihydrobenzo[b][1,4]dioxin-6-yl)-1-hydroxy-3-(pyrrolidin-1-yl)propan-2-yl)-4-(4-methoxyphenyl)-4-oxobutanamide], the IC50 under setting [2] lay within 0.1 to 1 µM.
On to `Cc1ccc(CNC(=O)N[C@H](CN2CCCC2)[C@H](O)c2ccc3c(c2)OCCO3)cc1` [Compound 42, 1-((1R,2R)-1-(2,3-dihydrobenzo[β][1,4]dioxin-6-yl)-1-hydroxy-3-(pyrrolidin-1-yl)propan-2-yl)-3-(4-methylbenzyl)urea], for which the IC50 under setting [2] is at most 0.1 µM.
For the compound `COc1ccc(OCCC(=O)N[C@H](CN2CCCC2)[C@H](O)c2ccc(C(F)(F)F)cc2)cc1` [Compound 489], the IC50 (Table 3 (IC 50 Values)) was in the range of 3 to 10 µM.
Take `O=C(CCCCCOCC(F)(F)F)N[C@H](CN1CCCC1)[C@H](O)c1ccc2c(c1)OCCO2` [Compound 620]: the IC50 (Table 3 (IC 50 Values)) lay in the range of 0.1 to 1 µM.
The same measure, in the same setting: under `CCCCCCCC(=O)N[C@H](CN1CCC[C@H]1COC)[C@@H](O)c1ccc2c(c1)OCCO2` [Compound 534] stands 3 to 10 µM.
On the same count and under the same terms, under `COc1ccc(C(=O)CCCCCC(=O)N[C@H](CN2CCCC2(C)C)[C@H](O)c2ccc3c(c2)OCCO3)cc1` [Compound 552] stands 1 to 3 µM; under `COCCCCCCCC(=O)N[C@H](CN1CC[C@H](O)C1)[C@H](O)c1ccc(OCCCCF)cc1` [Compound 499], at most 0.1 µM; under `COc1ccc([C@@H](O)[C@@H](CN2CCCC2)NC(=O)Cc2ccc(OC(F)(F)F)cc2)cc1Cl` [Compound 710], at most 0.1 µM.
For `O=C(CCCC(=O)c1ccccc1)N[C@H](CN1CCCC1)[C@H](O)c1ccc2c(c1)OCCO2` [Compound 113, N-((1R,2R)-1-(2,3-dihydrobenzo[β][1,4]dioxin-6-yl)-1-hydroxy-3-(pyrrolidin-1-yl)propan-2-yl)-5-oxo-5-phenylpentanamide], the IC50 under setting [2] lay in the range of 0.1 to 1 µM.
Regarding `COc1ccc(C(=O)CCCCC(=O)N(Cc2cccnc2)[C@H](CN2CCCC2)[C@H](O)c2ccc(O)cc2)cc1` [Compound 425], the IC50 (Table 3 (IC 50 Values)) was in the range of 3 to 10 µM.
The same measure, in the same setting: under `COc1ccc(OCCC(=O)N[C@H](CN2CCCC2)[C@H](O)c2ccc(-c3ccccc3)cc2)cc1` [Compound 695] stands 0.1 to 1 µM.
`O=C(CCCS(=O)(=O)C1CCCCC1)N[C@H](CN1CC[C@@H](F)C1)[C@H](O)c1ccc(OCc2ccccc2)cc1` [Compound 577]: under “Table 3 (IC 50 Values)”, the IC50 fell in the range of 0.1 to 1 µM.
Same read-out and setting: with `O=C(Cc1ccc(OC(F)(F)F)cc1)N[C@H](CN1CCCC1)[C@H](O)c1ccc(C(F)(F)F)cc1` [Compound 487] the figure was 3 to 10 µM; with `COc1ccc(C(=O)CCCCCC(=O)N[C@H](CNC2CCCC2)[C@H](O)c2ccc3c(c2)OCCO3)cc1` [Compound 463], 0.1 to 1 µM.
Regarding `COCCc1ccc([C@@H](O)[C@@H](CN2CCCC2)NC(=O)Cc2ccc(OC(F)(F)F)cc2)cc1` [Compound 354], the IC50 (Table 3 (IC 50 Values)) was in the range of 0.1 to 1 µM.
Turning to `O=C(CCCOn1nnc2ccccc21)N[C@H](CN1CC[C@@H](F)C1)[C@H](O)c1ccc2c(c1)OCCO2` [Compound 651], the IC50 (Table 3 (IC 50 Values)) lay within 1 to 3 µM.
Consider `COc1ccc(OCCC(=O)N[C@H](Cn2ccnc2)[C@H](O)c2ccc3c(c2)OCCO3)cc1` [Compound 508], for which, where the note is “Table 3 (IC 50 Values)”, the IC50 lay in the range of 3 to 10 µM.
For the compound `COc1ccc(C(=O)CCCCCC(=O)N[C@H](CN2[C@H](C)CC[C@H]2C)[C@H](O)c2ccc3c(c2)OCCO3)cc1` [Compound 548], the IC50 (Table 3 (IC 50 Values)) was in the range of 1 to 3 µM.
As to `COc1ccc([C@@H](O)[C@@H](CN2CCCC2)NC(=O)OCc2ccccc2)cc1` [Compound 289, benzyl (1R,2R)-1-hydroxy-1-(4-methoxyphenyl)-3-(pyrrolidin-1-yl)propan-2-ylcarbamate], the IC50 (Table 2, 2 days incubation) fell in the range of 0.1 to 1 µM.
As to `O=C(N[C@H](CN1CCCC1)[C@H](O)c1ccc2c(c1)OCCO2)C1CC[C@@H](C(=O)c2ccc(F)cc2)C1` (stereo partly drawn) [Compound 635], the IC50 (Table 3 (IC 50 Values)) fell in the range of 3 to 10 µM.
`O=C(CCC(=O)c1ccc(C(F)(F)F)cc1)N[C@H](CN1CCCC1)[C@H](O)c1ccc2c(c1)OCCO2` [Compound 176, N-((1R,2R)-1-(2,3-dihydrobenzo[β][1,4]dioxin-6-yl)-1-hydroxy-3-(pyrrolidin-1-yl)propan-2-yl)-4-oxo-4-(4-(trifluoromethyl)phenyl)butanamide (2S,3S)-2,3-dihydroxysuccinate]: the IC50 (Table 1, 2 days incubation) was at most 0.1 µM.
Take `COc1ccc(C(=O)CCCCCC(=O)N[C@H](CN2CCCC2)C(O)C2CCCCC2)cc1` (stereo partly drawn) [Compound 471]: where the note is “Table 3 (IC 50 Values)”, the IC50 lay within 1 to 3 µM.
Turning to `COc1ccc(C(=O)CCCCC(=O)N[C@H](CN2CCCC2)[C@H](O)c2ccc(OCCOc3ccccc3F)cc2)cc1` [Compound 366], the IC50 (Table 3 (IC 50 Values)) was at most 0.1 µM.
In the case of `COc1ccc(C(=O)CCCCCC(=O)N[C@@H](Cc2ccccc2)CN2CCCC2)cc1` [Compound 541], the IC50 (Table 3 (IC 50 Values)) is 3 to 10 µM.
Still for that read-out and setting: with `COc1ccc(C(=O)CCCCCC(=O)N[C@H](CN2C(C)CCCC2C)[C@H](O)c2ccc3c(c2)OCCO3)cc1` (stereo partly drawn) [Compound 602] the figure was 3 to 10 µM; with `COc1ccc(OCCC(=O)N[C@H](CN2CCC(F)(F)CC2)[C@H](O)c2ccc3c(c2)OCCO3)cc1` [Compound 627], 3 to 10 µM.
Consider `COc1ccc(CN(C(=O)CCCCC(=O)c2ccc(OC)cc2)[C@H](CN2CCCC2)[C@H](O)c2ccc(O)cc2)cc1` [Compound 426], for which, under “Table 3 (IC 50 Values)”, the IC50 fell in the range of 3 to 10 µM.
Regarding `O=C(Cc1csc(-c2cccc(C(F)(F)F)c2)n1)N[C@H](CN1CCCC1)[C@H](OC(=O)Cc1csc(-c2cccc(C(F)(F)F)c2)n1)c1ccc2c(c1)OCCO2` [Compound 255], under setting [1], the IC50 was in the range of 1 to 3 µM.
Turning to `O=C(CCCCC(=O)c1ccc(F)cc1)N[C@H](CN1CC[C@H](O)C1)[C@H](O)c1ccc2c(c1)OCCO2` [Compound 654], the IC50 (Table 3 (IC 50 Values)) fell in the range of 1 to 3 µM.
`COc1c(C)cc(C(=O)CCCCC(=O)N[C@H](CN2CCCC2)[C@H](O)c2ccc3c(c2)OCCO3)cc1C` [Compound 140, N-((1R,2R)-1-(2,3-dihydrobenzo[β][1,4]dioxin-6-yl)-1-hydroxy-3-(pyrrolidin-1-yl)propan-2-yl)-6-(4-methoxy-3,5-dimethylphenyl)-6-oxohexanamide]: the IC50 under setting [2] is at most 0.1 µM.
As to `Cc1noc(CCCCC(=O)NC(CN2CCCC2)C(O)c2ccc3c(c2)OCCO3)n1` (stereo not drawn) [Compound 652], the IC50 (Table 3 (IC 50 Values)) lay within 3 to 10 µM.
In the case of `CCC(=O)c1ccc(OCCC(=O)N[C@H](CN2CCCC2)[C@H](O)c2ccc3c(c2)OCCO3)cc1` [Compound 189, N-((1R,2R)-1-(2,3-dihydrobenzo[b][1,4]dioxin-6-yl)-1-hydroxy-3-(pyrrolidin-1-yl)propan-2-yl)-3-(4-propionylphenoxy)propanamide (2R,3R)-2,3-dihydroxysuccinate], the IC50 under setting [2] fell in the range of 0.1 to 1 µM.
Regarding `O=C(CC12CC3CC(CC(C3)C1)C2)N[C@@H](CN1CCCC1)C(O)c1ccc2c(c1)OCCO2` (stereo partly drawn) [Compound 636], the IC50 (Table 3 (IC 50 Values)) lay in the range of 3 to 10 µM.
Turning to `COc1ccc(C(=O)CCCC(=O)N[C@H](CN2CCCC2)[C@H](O)c2sccc2C)cc1` [Compound 361], the IC50 (Table 3 (IC 50 Values)) fell in the range of 3 to 10 µM.
Consider `CCCCCCCC(=O)N[C@H](CN1CCCC1)[C@H](O)c1cc(O)c2c(c1)OCCO2` [Compound 318], for which the IC50 under setting [1] fell in the range of 0.1 to 1 µM.
Regarding `O=C(CCCOc1ccc(F)cc1)N[C@H](CN1CC[C@@H](F)C1)[C@H](O)c1ccc2c(c1)OCCO2` [Compound 567], the IC50 (Table 3 (IC 50 Values)) was 0.1 to 1 µM.
For the compound `COc1ccc(OCCOc2ccc([C@@H](O)C(CN3CCCC3)NC(=O)CCCCC(=O)c3ccc(OC)cc3)cc2)cc1` (stereo partly drawn) [Compound 416], the IC50 (Table 3 (IC 50 Values)) was at most 0.1 µM.
In the case of `COCCOc1ccc(C(=O)CCCC(=O)N[C@H](CN2CC[C@H](O)C2)[C@H](O)c2ccc(OCCCCF)cc2)cc1` [Compound 457], the IC50 (Table 3 (IC 50 Values)) was at most 0.1 µM.
For the compound `O=C(N[C@H](CN1CCCC1)[C@H](O)c1ccc2c(c1)OC(F)(F)C(F)(F)O2)OCc1ccccc1` [Compound 399], where the note is “Table 3 (IC 50 Values)”, the IC50 was 1 to 3 µM.
In the case of `O=C(N[C@H](CN1CCCC1)[C@H](O)c1ccc2c(c1)OCCO2)c1cc2ccccc2s1` [Compound 5, N-((1R,2R)-1-(2,3-dihydrobenzo[β][1,4]dioxin-6-yl)-1-hydroxy-3-(pyrrolidin-1-yl)propan-2-yl)benzo[b]thiophene-2-carboxamide], under setting [2], the IC50 was in the range of 0.1 to 1 µM.
